Results: the supplement of paper PMC10307832

Legend:
Experiment in all cases: relative viability (nuclei count vs DMSO), 5 days (fraction); higher = more cells survive
RU-SKI 43 + Trametinib = compound: CC[C@@H](C)CNCC(=O)N1CCC2=C([C@@H]1COC3=CC=CC(=C3)C)C=CS2 [RU-SKI 43] + CC(=O)Nc1cccc(-n2c(=O)n(C3CC3)c(=O)c3c(Nc4ccc(I)cc4F)n(C)c(=O)c(C)c32)c1 [Trametinib] (partner 0.02 µM)
How it was run: (§1)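 Relative viability equals treated-well nuclei counts divided by vehicle-well nuclei counts. Counts came from 4× images of lung cancer cell lines grown in 1536-well plates for 5 days after pin-tool dosing on the day after seeding. Dosing used one drug alone or a fixed anchor-drug dose plus five library-drug doses (not always all listed) in √10 steps, and values are medians of duplicate plates.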

MK-8033 + Foretinib = compound: Cn1cc(-c2cnc3ccc4ccc(CS(=O)(=O)NCc5ccccn5)cc4c(=O)c3c2)cn1 [MK-8033] + COc1cc2c(Oc3ccc(NC(=O)C4(C(=O)Nc5ccc(F)cc5)CC4)cc3F)ccnc2cc1OCCCN1CCOCC1 [Foretinib] (partner 0.25 µM)
How it was run: as §1

RU-SKI 43 + Foretinib = compound: CC[C@@H](C)CNCC(=O)N1CCC2=C([C@@H]1COC3=CC=CC(=C3)C)C=CS2 [RU-SKI 43] + COc1cc2c(Oc3ccc(NC(=O)C4(C(=O)Nc5ccc(F)cc5)CC4)cc3F)ccnc2cc1OCCCN1CCOCC1 [Foretinib] (partner 0.25 µM)
How it was run: as §1

RU-SKI 43 + Tozasertib = compound: CC[C@@H](C)CNCC(=O)N1CCC2=C([C@@H]1COC3=CC=CC(=C3)C)C=CS2 [RU-SKI 43] + Cc1cc(Nc2cc(N3CCN(C)CC3)nc(Sc3ccc(NC(=O)C4CC4)cc3)n2)n[nH]1 [Tozasertib] (partner 0.1 µM)
How it was run: as §1

Row | Cell Line | relative viability (RU-SKI 43 + Trametinib; first compound 0.1 µM) | relative viability (RU-SKI 43 + Trametinib; first compound 0.3162 µM) | relative viability (RU-SKI 43 + Trametinib; first compound 1 µM) | relative viability (RU-SKI 43 + Trametinib; first compound 3.162 µM) | relative viability (RU-SKI 43 + Trametinib; first compound 10 µM) | relative viability (MK-8033 + Foretinib; first compound 0.02 µM) | relative viability (MK-8033 + Foretinib; first compound 0.06325 µM) | relative viability (MK-8033 + Foretinib; first compound 0.2 µM) | relative viability (MK-8033 + Foretinib; first compound 0.6325 µM) | relative viability (MK-8033 + Foretinib; first compound 2 µM) | relative viability (RU-SKI 43 + Foretinib; first compound 0.1 µM) | relative viability (RU-SKI 43 + Foretinib; first compound 0.3162 µM) | relative viability (RU-SKI 43 + Foretinib; first compound 1 µM) | relative viability (RU-SKI 43 + Foretinib; first compound 3.162 µM) | relative viability (RU-SKI 43 + Foretinib; first compound 10 µM) | relative viability (RU-SKI 43 + Tozasertib; first compound 0.1 µM) | relative viability (RU-SKI 43 + Tozasertib; first compound 0.3162 µM) | relative viability (RU-SKI 43 + Tozasertib; first compound 1 µM) | relative viability (RU-SKI 43 + Tozasertib; first compound 3.162 µM) | relative viability (RU-SKI 43 + Tozasertib; first compound 10 µM)
1 | SK-MES-1 | 0.482 | 0.597 | 0.522 | 0.52 | 0.474 | 0.899 | 0.86 | 0.858 | 0.805 | 0.851 | 1.09 | 1.04 | 0.97 | 1.1 | 0.907 | 0.9 | 1.14 | 1.04 | 0.924 | 0.754
2 | HOP-62 | 0.358 | 0.428 | 0.374 | 0.405 | 0.314 | 1.07 | 1.07 | 1.03 | 1.06 | 1.18 | 1.1 | 1.2 | 1.15 | 1.24 | 1.13 | 0.359 | 0.371 | 0.479 | 0.344 | 0.287
3 | NCI-H520 | 0.79 | 1.02 | 0.654 | 0.794 | 0.45 | 0.992 | 0.777 | 0.762 | 0.844 | 0.556 | 0.816 | 0.892 | 0.812 | 0.859 | 0.539 | 0.456 | 0.422 | 0.428 | 0.401 | 0.408
4 | EBC-1 |  |  |  |  |  | 0.103 | 0.0762 | 0.0977 | 0.126 | 0.0876 | 0.103 | 0.0955 | 0.101 | 0.0987 | 0.109 |  |  |  |  | 
5 | BEN | 0.967 | 1.12 | 1.06 | 1.11 | 1.01 | 0.642 | 0.541 | 0.527 | 0.606 | 0.646 | 0.789 | 0.548 | 0.992 | 0.53 | 0.705 | 0.502 | 0.426 | 0.546 | 0.495 | 0.509
6 | NCI-H322M | 0.492 | 0.553 | 0.534 | 0.565 | 0.553 | 0.918 | 0.868 | 0.955 | 1.03 | 0.965 | 0.939 | 1.09 | 1.11 | 1.03 | 0.892 | 0.516 | 0.502 | 0.47 | 0.518 | 0.394
7 | LU99A | 0.561 | 0.65 | 0.595 | 0.553 | 0.489 | 0.903 | 0.716 | 0.834 | 0.841 | 0.743 | 0.86 | 0.99 | 0.815 | 0.742 | 0.731 | 0.255 | 0.234 | 0.279 | 0.202 | 0.227
8 | NCI-H2405 | 0.645 | 0.681 | 0.612 | 0.713 | 0.581 | 1.01 | 1.02 | 0.988 | 1.09 | 1.04 | 1.08 | 1.03 | 1.04 | 1.09 | 1.05 | 0.73 | 0.705 | 0.713 | 0.701 | 0.629
9 | NCI-H1395 | 1.06 | 1.2 | 1.23 | 0.98 | 0.981 | 0.989 | 0.855 | 0.939 | 0.98 | 0.994 | 0.865 | 0.985 | 1.05 | 1.01 | 1 | 0.866 | 0.694 | 0.774 | 0.789 | 0.692
10 | HCC-44 | 1.11 | 1.06 | 1.17 | 1.15 | 1.07 |  |  |  |  |  |  |  |  |  |  | 0.962 |  | 0.903 | 1.02 | 0.87
11 | NCI-H441 | 0.483 | 0.426 | 0.552 | 0.45 | 0.265 | 0.842 | 1.02 | 0.967 | 0.968 | 0.896 | 0.981 | 1.01 | 1.09 | 1.04 | 0.842 | 0.597 | 0.542 | 0.541 | 0.736 | 0.554
12 | Calu-6 |  |  |  |  |  | 0.833 | 0.815 | 0.874 | 0.914 | 0.81 | 0.958 | 0.976 | 0.973 | 0.859 | 0.724 |  |  |  |  | 
13 | CAL-12T | 0.306 | 0.242 | 0.316 | 0.259 | 0.351 | 1.05 | 1.14 | 1.03 | 1.09 | 1.11 | 1.05 | 1.31 | 1.09 | 1.18 | 1.06 | 0.296 | 0.403 | 0.303 | 0.26 | 0.243
14 | HCC-78 | 0.678 | 0.916 | 0.641 | 0.809 | 0.724 | 0.444 |  | 0.548 | 0.575 | 0.55 | 0.541 | 0.6 | 0.592 | 0.591 | 0.479 | 0.395 | 0.569 | 0.432 | 0.406 | 0.318
15 | NCI-H2170 | 0.975 | 1.39 | 1.04 | 0.908 | 0.946 | 1.03 | 0.966 | 0.959 | 1.06 | 1.09 | 0.994 | 1.13 | 1.07 | 1.09 | 0.975 | 0.701 | 0.953 | 0.751 | 0.722 | 0.701
16 | NCI-H1623 |  |  |  |  |  | 0.904 | 0.729 | 0.889 | 0.812 | 0.943 | 0.802 | 0.871 | 0.922 | 0.826 | 0.711 | 0.447 | 0.42 | 0.71 | 0.386 | 0.399
17 | NCI-H23 | 0.395 | 0.392 | 0.38 | 0.443 | 0.348 | 0.826 | 0.932 | 0.961 | 1.02 | 0.942 | 1.01 | 0.882 | 1.12 | 1.27 | 0.973 | 0.394 | 0.393 | 0.347 | 0.455 | 0.297
18 | COR-L 105 | 0.404 | 0.334 | 0.41 | 0.414 | 0.397 | 1.35 | 0.976 | 0.992 | 1.05 | 0.907 | 0.995 | 0.903 | 1.18 | 1.04 | 0.736 | 0.317 | 0.252 | 0.32 | 0.339 | 0.332
